Data from patent US5563155A, “Individual stereosiomers of 7-[3-(aminoalkyl)-1-pyrrolidinyl]-quinolones and naphthyridones as antibacterial agents” (Warner-Lambert Company, priority 1995, dated 1996).
Converted amounts (≈) assume the structure as drawn.

How the values were obtained:
Assay type in all cases: cell-based
Ent. cloacae MA2646 = experiment: in vitro antibacterial activity, microtitration dilution (MIC), Ent. cloacae MA2646; conditions: Enterobacter cloacae, read-out: minimum inhibiting concentration (MIC)
Description: (§1) The in vitro antibacterial activity, is obtained by the microtitration dilution method as described in Heifetz, et al., Antimicr. Agents & Chemother., 6, 124 (1974), which is incorporated herein by reference.
(§2) By use of the above methods, the following minimum inhibiting concentration values (MICs in μg/mL), PD50 's in mg/kg, no effect phototoxicity dose in mg/kg and the cytotoxicity IC50 in μg/mL were obtained for representative enantiomers of the invention and compounds of the prior art as shown in the table.

Klebs. pneumoniae MGH-2 = experiment: in vitro antibacterial activity, microtitration dilution (MIC), Klebs. pneumoniae MGH-2; conditions: Klebsiella pneumoniae, MGH2, read-out: minimum inhibiting concentration (MIC)
Description: as §1, §2

Staph. aureus H 228 = experiment: in vitro antibacterial activity, microtitration dilution (MIC), Staph. aureus H 228; conditions: Staphylococcus aureus, H228, read-out: minimum inhibiting concentration (MIC)
Description: as §1, §2

Strep. pheumoniae SV-1 = experiment: in vitro antibacterial activity, microtitration dilution (MIC), Strep. pneumoniae SV-1; conditions: Streptococcus pneumoniae, SV1, read-out: minimum inhibiting concentration (MIC)
Description: as §1, §2

Strep. faecalis MGH-2 = experiment: in vitro antibacterial activity, microtitration dilution (MIC), Strep. faecalis MGH-2; conditions: Enterococcus faecalis, MGH2, read-out: minimum inhibiting concentration (MIC)
Description: as §1, §2

Pseud. aeruginosa UI-18 = experiment: in vitro antibacterial activity, microtitration dilution (MIC), Pseud. aeruginosa UI-18; conditions: Pseudomonas aeruginosa, UI18, read-out: minimum inhibiting concentration (MIC)
Description: as §1, §2

Staph. aureus UC-76 = experiment: in vitro antibacterial activity, microtitration dilution (MIC), Staph. aureus UC-76; conditions: Staphylococcus aureus, UC76, read-out: minimum inhibiting concentration (MIC)
Description: as §1, §2

Esch. coli Vogel = experiment: in vitro antibacterial activity, microtitration dilution (MIC), Esch. coli Vogel; conditions: Escherichia coli, read-out: minimum inhibiting concentration (MIC)
Description: as §1, §2

Strep. pyogenes C-203 = experiment: in vitro antibacterial activity, microtitration dilution (MIC), Strep. pyogenes C-203; conditions: Streptococcus pyogenes, C203, read-out: minimum inhibiting concentration (MIC)
Description: as §1, §2

Prot. rettgeri M 1771 = experiment: in vitro antibacterial activity, microtitration dilution (MIC), Prot. rettgeri M 1771; conditions: Providencia rettgeri, M1771, read-out: minimum inhibiting concentration (MIC)
Description: as §1, §2

SMILES	MIC (Ent. cloacae MA2646)	MIC (Klebs. pneumoniae MGH-2)	MIC (Staph. aureus H 228)	MIC (Strep. pheumoniae SV-1)	MIC (Strep. faecalis MGH-2)	MIC (Pseud. aeruginosa UI-18)	MIC (Staph. aureus UC-76)	MIC (Esch. coli Vogel)	MIC (Strep. pyogenes C-203)	MIC (Prot. rettgeri M 1771)
C[C@@H]([C@H]1CCN(c2nc3c(cc2F)c(=O)c(C(=O)O)cn3C2CC2)C1)N(C)C [Example 70, 3S,1S-1-cyclopropyl-7-[3-[1-(dimethylamino)ethyl]-1-pyrrolidinyl]-6-fluoro-1,4-dihydro-4-oxo-1,8-naphthyridine-3-carboxylic acid]	0.4 µg/mL (≈ 1.03 µM)	0.8 µg/mL (≈ 2.06 µM)	0.4 µg/mL (≈ 1.03 µM)	0.2 µg/mL (≈ 0.515 µM)	0.8 µg/mL (≈ 2.06 µM)	12.5 µg/mL (≈ 32.2 µM)	0.2 µg/mL (≈ 0.515 µM)	0.4 µg/mL (≈ 1.03 µM)	0.4 µg/mL (≈ 1.03 µM)	3.1 µg/mL (≈ 7.98 µM)
CN[C@@H](C)[C@@H]1CCN(c2c(F)c(C)c3c(=O)c(C(=O)O)cn(C4CC4)c3c2OC)C1 [Example 61, 3R,1S-1-cyclopropyl-6-fluoro-7-[3-(1-N-methylaminoethyl)-1-pyrrolidinyl]-5-methyl-8-methoxy-1,4-dihydro-4-oxo-3-quinolinecarboxylic acid]	0.1 µg/mL (≈ 0.24 µM)	0.2 µg/mL (≈ 0.479 µM)	0.006 µg/mL (≈ 0.0144 µM)	≤ 0.003 µg/mL	0.025 µg/mL (≈ 0.0599 µM)	1.6 µg/mL (≈ 3.83 µM)	≤ 0.003 µg/mL	0.1 µg/mL (≈ 0.24 µM)	≤ 0.003 µg/mL	0.4 µg/mL (≈ 0.958 µM)
Cc1c(F)c(N2CC[C@@H]([C@H](C)N)C2)cc2c1c(=O)c(C(=O)O)cn2C1CC1 [Example 47, 3R,1S-7-[3-(1-aminoethyl)-1-pyrrolidinyl]-1-cyclopropyl-6-fluoro-1,4-dihydro-5-methyl-4-oxo-3-quinolinecarboxylic acid]	0.1 µg/mL (≈ 0.268 µM)	0.1 µg/mL (≈ 0.268 µM)	0.025 µg/mL (≈ 0.0669 µM)	0.003 µg/mL (≈ 0.00803 µM)	0.025 µg/mL (≈ 0.0669 µM)	0.8 µg/mL (≈ 2.14 µM)	0.003 µg/mL (≈ 0.00803 µM)	0.1 µg/mL (≈ 0.268 µM)	0.003 µg/mL (≈ 0.00803 µM)	0.2 µg/mL (≈ 0.536 µM)
CCN[C@H](C)[C@@H]1CCN(c2nc3c(cc2F)c(=O)c(C(=O)O)cn3-c2ccc(F)cc2F)C1 [Example 51, 3R,1R-7-[3-(1-N-ethylaminoethyl)-1-pyrrolidinyl]-1-(2,4-difluorophenyl)-6-fluoro-1,4-dihydro-4-oxo-1,8-naphthyridine-3-carboxylic acid]	0.8 µg/mL (≈ 1.74 µM)	1.6 µg/mL (≈ 3.47 µM)	0.2 µg/mL (≈ 0.434 µM)	0.2 µg/mL (≈ 0.434 µM)	0.4 µg/mL (≈ 0.869 µM)	> 3.1 µg/mL	0.05 µg/mL (≈ 0.109 µM)	0.8 µg/mL (≈ 1.74 µM)	0.2 µg/mL (≈ 0.434 µM)	3.1 µg/mL (≈ 6.73 µM)
CN[C@@H](C)[C@@H]1CCN(c2c(F)c(N)c3c(=O)c(C(=O)O)cn(C4CC4)c3c2OC)C1 [Example 56, 3R,1S-5-amino-1-cyclopropyl-6-fluoro-1,4-dihydro-8-methoxy-7-[3-(1-N-methylaminoethyl)-1-pyrrolidinyl]-4-oxo-3-quinolinecarboxylic acid]	0.2 µg/mL (≈ 0.478 µM)	0.2 µg/mL (≈ 0.478 µM)	0.013 µg/mL (≈ 0.0311 µM)	0.006 µg/mL (≈ 0.0143 µM)	0.025 µg/mL (≈ 0.0597 µM)	1.6 µg/mL (≈ 3.82 µM)	0.006 µg/mL (≈ 0.0143 µM)	0.1 µg/mL (≈ 0.239 µM)	0.006 µg/mL (≈ 0.0143 µM)	0.4 µg/mL (≈ 0.956 µM)
CN[C@H](C)[C@@H]1CCN(c2cc3c(c(C)c2F)c(=O)c(C(=O)O)cn3-c2ccc(F)cc2F)C1 [Example 63]	0.4 µg/mL (≈ 0.871 µM)	0.4 µg/mL (≈ 0.871 µM)	0.1 µg/mL (≈ 0.218 µM)	0.2 µg/mL (≈ 0.435 µM)	0.2 µg/mL (≈ 0.435 µM)	3.1 µg/mL (≈ 6.75 µM)	0.05 µg/mL (≈ 0.109 µM)	0.4 µg/mL (≈ 0.871 µM)	0.2 µg/mL (≈ 0.435 µM)	0.8 µg/mL (≈ 1.74 µM)
COc1c(N2CC[C@@H]([C@H](C)N)C2)c(F)c(N)c2c(=O)c(C(=O)O)cn(C3CC3)c12 [Example 59, 3R,1S-5-amino-7-[3-(1-aminoethyl)-1-pyrrolidinyl]-1-cyclopropyl-6-fluoro-1,4-dihydro-8-methoxy-4-oxo-3-quinolinecarboxylic acid]	0.05 µg/mL (≈ 0.124 µM)	0.1 µg/mL (≈ 0.247 µM)	0.006 µg/mL (≈ 0.0148 µM)	0.003 µg/mL (≈ 0.00742 µM)	0.006 µg/mL (≈ 0.0148 µM)	0.8 µg/mL (≈ 1.98 µM)	0.003 µg/mL (≈ 0.00742 µM)	0.05 µg/mL (≈ 0.124 µM)	0.003 µg/mL (≈ 0.00742 µM)	0.1 µg/mL (≈ 0.247 µM)
C[C@H](N)[C@@H]1CCN(c2c(F)c(N)c3c(=O)c(C(=O)O)cn(C4CC4)c3c2F)C1 [Example 58, 3R,1S-5-amino-7-[3-(1-aminoethyl)-1-pyrrolidinyl]-1-cyclopropyl-6,8-difluoro-1,4-dihydro-4-oxo-3-quinolinecarboxylic acid]	0.013 µg/mL (≈ 0.0331 µM)	0.013 µg/mL (≈ 0.0331 µM)	0.003 µg/mL (≈ 0.00765 µM)	0.003 µg/mL (≈ 0.00765 µM)	0.003 µg/mL (≈ 0.00765 µM)	0.4 µg/mL (≈ 1.02 µM)	0.003 µg/mL (≈ 0.00765 µM)	0.013 µg/mL (≈ 0.0331 µM)	0.003 µg/mL (≈ 0.00765 µM)	0.025 µg/mL (≈ 0.0637 µM)
CCN[C@@H](C)[C@H]1CCN(c2c(F)cc3c(=O)c(C(=O)O)cn(C4CC4)c3c2OC)C1 [Example 20, 3S,1S-1-cyclopropyl-6-fluoro-7-[3-(1-N-ethylaminoethyl)1-pyrrolidinyl]-8-methoxy-1,4-dihydro-4-oxo-3quinolinecarboxylic acid]	0.8 µg/mL (≈ 1.92 µM)	1.6 µg/mL (≈ 3.83 µM)	0.2 µg/mL (≈ 0.479 µM)	0.2 µg/mL (≈ 0.479 µM)	0.4 µg/mL (≈ 0.958 µM)	6.3 µg/mL (≈ 15.1 µM)	0.05 µg/mL (≈ 0.12 µM)	0.8 µg/mL (≈ 1.92 µM)	0.2 µg/mL (≈ 0.479 µM)	3.1 µg/mL (≈ 7.43 µM)
CCN[C@H](C)[C@H]1CCN(c2c(F)cc3c(=O)c(C(=O)O)cn(C4CC4)c3c2OC)C1 [Example 19, 3S,1R-1-cyclopropyl-6-fluoro-7-[3-(1-N-ethylaminoethyl)1-pyrrolidinyl]-8-methoxy-1,4-dihydro-4-oxo-3-quinolinecarboxylic acid]	0.4 µg/mL (≈ 0.958 µM)	0.8 µg/mL (≈ 1.92 µM)	0.1 µg/mL (≈ 0.24 µM)	0.013 µg/mL (≈ 0.0311 µM)	0.1 µg/mL (≈ 0.24 µM)	6.3 µg/mL (≈ 15.1 µM)	0.05 µg/mL (≈ 0.12 µM)	0.4 µg/mL (≈ 0.958 µM)	0.025 µg/mL (≈ 0.0599 µM)	1.6 µg/mL (≈ 3.83 µM)
CN[C@@H](C)[C@H]1CCN(c2c(F)c(N)c3c(=O)c(C(=O)O)cn(C4CC4)c3c2F)C1 [Example 35, 3S,1S-5-amino-1-cyclopropyl-6,8-difluoro-7-[3-(1-N-methylaminoethyl)-1-pyrrolidinyl]-1,4-dihydro-4-oxo-3-quinolinecarboxylic acid]	0.2 µg/mL (≈ 0.492 µM)	0.8 µg/mL (≈ 1.97 µM)	0.1 µg/mL (≈ 0.246 µM)	0.2 µg/mL (≈ 0.492 µM)	0.2 µg/mL (≈ 0.492 µM)	3.1 µg/mL (≈ 7.63 µM)	0.05 µg/mL (≈ 0.123 µM)	0.2 µg/mL (≈ 0.492 µM)	0.2 µg/mL (≈ 0.492 µM)	0.8 µg/mL (≈ 1.97 µM)
CN[C@H](C)[C@H]1CCN(c2c(F)c(N)c3c(=O)c(C(=O)O)cn(C4CC4)c3c2F)C1 [Example 34, 3S,1R-5-amino-1-cyclopropyl-6,8-difluoro-7-[3-(1-N-methylaminoethyl)-1-pyrrolidinyl]-1,4-dihydro-4-oxo-3-quinolinecarboxylic acid]	0.4 µg/mL (≈ 0.984 µM)	0.8 µg/mL (≈ 1.97 µM)	0.8 µg/mL (≈ 1.97 µM)	0.8 µg/mL (≈ 1.97 µM)	1.6 µg/mL (≈ 3.94 µM)	3.1 µg/mL (≈ 7.63 µM)	0.4 µg/mL (≈ 0.984 µM)	0.4 µg/mL (≈ 0.984 µM)	1.6 µg/mL (≈ 3.94 µM)	1.6 µg/mL (≈ 3.94 µM)
CCN[C@@H](C)[C@@H]1CCN(c2cc3c(c(C)c2F)c(=O)c(C(=O)O)cn3-c2ccc(F)cc2F)C1 [Example 54, 3R,1S-7-[3-(1-N-ethylaminoethyl)-1-pyrrolidinyl]-1-(2,4-difluorophenyl)-6-fluoro-1,4-dihydro-5-methyl-4-oxo-3-quinolinecarboxylic acid]	0.4 µg/mL (≈ 0.845 µM)	0.8 µg/mL (≈ 1.69 µM)	0.025 µg/mL (≈ 0.0528 µM)	0.013 µg/mL (≈ 0.0275 µM)	0.1 µg/mL (≈ 0.211 µM)	3.1 µg/mL (≈ 6.55 µM)	0.013 µg/mL (≈ 0.0275 µM)	0.4 µg/mL (≈ 0.845 µM)	0.013 µg/mL (≈ 0.0275 µM)	1.6 µg/mL (≈ 3.38 µM)
